{
  "source": "paper PMC12756182",
  "about": "“Co-option of an ancestral peptidase controls developmental patterning in multicellular cyanobacteria” (iScience, 2025)",
  "molecules": {"B1": {"name": "HetN: another inhibitor that maintains heterocyst patterning, containing the RGSGR pentapeptide (protein, UniProt P37694 1-287, looked up)", "Ketoacyl reductase HetN": "MTTLTGKTVLLTGASRGLGVYIARALAKEQATVVCVSRSQSGLAQTCNAVKAAGGKAIAIPFDVRNTSQLSALVQQAQDIVGPIDVLINNAGIEINGTFANYSLAEIQSIFNTNLLAAMELTRLLLPSMMERGSGRIVNIASLAGKKGVAFNSVYSASKAGLIMWTDAMRQELVGTGVNISVVCPGYVSQTGMTVDTRVSAPKLAGISTPKSVANAVVKAIKNKTTEVIVNQNPITESLTKLMLAVGQISPTSVDRIYRWFGVVDFNQKRAENRVKDGYVAVESHRS"}, "B2": {"name": "PatX-6 peptide (HRGTGR) (peptide)", "peptide": "HRGTGR", "notes": "also called PatX6 hexapeptide; PatX-derived hexapeptide; source: synthetic peptide (Genecust)"}},
  "key": {"Alr1666 (PatP)": {"system": "Alr1666 (PatP)", "experiment": "LC-MS/MS identification of Alr1666-generated non-tryptic PatX peptides", "type": "biochemical, Nostoc PCC 7120", "conditions": "LC-MS/MS of excised 18–25 kDa gel region; three experimental replicates; with vs without Alr1666-V5", "text": "Figure 5 Ex vivo cleavage assay of TrxA-PatXΔSS-MBP by the putative peptidase Alr1666 (A) Schematic of the TrxA-PatXΔSS-MBP fusion protein construct, shown before and after potential cleavage by Alr1666. (B) Immunoblot analysis of cleavage assays. Expression of trxA-patXΔSS-malE was induced with IPTG; expression of alr1666-V5 was induced with arabinose. The blot was probed with anti-TrxA antibodies (top panel) to detect the full-length TrxA-PatXΔSS-MBP fusion and any TrxA-PatX cleavage product, and with anti-V5 antibodies (bottom panel) to confirm Alr1666-V5 production. Lanes: 1, no inducer (negative control); 2, IPTG for 3 h; 3, IPTG for 1 h; 4, co-induction with IPTG and arabinose for 3 h; 5, sequential induction (IPTG for 1 h, then arabinose for 3 h). (C) Liquid chromatography-tandem mass spectrometry analysis of peptides from excised gel bands (see Figure S6A). […] Trx-PatXΔSS-MBP + Alr1666-V5: Experimental assay with Alr1666-V5. ∗0 values: No non-tryptic peptides were detected in control samples. […]\nThe 18–25 kDa region was excised to identify PatX-cleavage peptides by mass spectrometry (Figure S6A). Because higher molecular-weight bands smear downward during SDS-PAGE, the excised slice also contains proteins from those upper regions, and they will be detected as well. […] They were uniquely detected in Alr1666-expressing samples ([…]). […]"}, "HetR / hetP promoter": {"system": "HetR / hetP promoter", "experiment": "EMSA of HetR with the hetP promoter", "type": "biochemical, Nostoc PCC 7120", "conditions": "HetR 1 μM, hetP promoter 50 nM (6-FAM), peptide 1 μM, pH 8, 4°C, 30 minutes, one representative result", "experimental": "Heterocysts are indicated by white arrows. Time denotes hours post combined nitrogen starvation. Scale bars, 30 μm. […] Sector 1: wild-type. Sector 2: malE mutant. […] Red color indicates MBP periplasmic export.\nThe hetP gene promoter (alr2818) was amplified by PCR using PhetP fw and PhetP rv primers, with the forward primer labeled at the 5′ end with 6-FAM. Purified HetR protein (as previously described),[3] was incubated with the hetP promoter (50 nM) in a buffer containing 10 mM Tris (pH 8), 150 mM KCl, 500 nM EDTA, 0.1% Triton X-100, 12.5% glycerol, 1 mM DTT, and 1 μg DiDC competitor at 4°C in the dark for 30 minutes. Electrophoresis was conducted at 250 V for 60 minutes, and DNA was visualized using the Typhoon FLA 9500."}, "[1]": {"system": "Nostoc heterocyst differentiation", "conditions": "cited from earlier work"}, "HetR [2]": {"target": "T1, HetR (Nostoc sp., UniProt P27709)", "T1 construct": "made in house", "T1 sequence (P27709 1-299)": "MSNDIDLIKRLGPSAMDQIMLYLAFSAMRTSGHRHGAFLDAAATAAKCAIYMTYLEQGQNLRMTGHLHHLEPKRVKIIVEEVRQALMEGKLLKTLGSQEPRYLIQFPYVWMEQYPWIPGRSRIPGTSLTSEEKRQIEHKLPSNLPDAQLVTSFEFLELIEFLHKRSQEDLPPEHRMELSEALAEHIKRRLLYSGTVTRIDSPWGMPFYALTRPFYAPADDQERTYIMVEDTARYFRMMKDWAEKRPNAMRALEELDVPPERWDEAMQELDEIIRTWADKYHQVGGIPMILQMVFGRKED", "conditions": "cited from earlier work", "text": "Heterocyst differentiation involves four stages—induction, pattern formation, commitment, and morphogenesis—regulated by signaling cascades involving the master transcriptional regulator HetR.[10] Nitrogen starvation triggers 2-oxoglutarate (2-OG) accumulation, activating NtcA to upregulate hetR.[11]^,[12] Deletion of hetR prevents differentiation, while its overexpression induces contiguous heterocysts formation even under non-permissive conditions.[10] HetR initiates a negative feedback loop by activating patS expression.[13] The resulting 17-amino-acid product is processed into the signalin ..."}, "[3]": {"system": "Nostoc PCC 7120 heterocyst differentiation", "conditions": "cited from earlier work", "text": "While hetR is conserved across heterocyst-forming cyanobacteria, patS and hetN are not,[23] implying the existence of additional inhibitory factors. Recently, PatX, containing the HRGTGR hexapeptide, was identified as coextensive with HetR in filamentous cyanobacteria.[23]"}, "HetR (Nostoc PCC 7120)": {"target": "T2, HetR (Nostoc PCC 7120) (UniProt P27709)", "T2 sequence": "T1 sequence (P27709 1-299)", "experiment": "EMSA", "conditions": "EMSA: 10 mM Tris pH 8, 150 mM KCl, 500 nM EDTA, 0.1% Triton X-100, 12.5% glycerol, 1 mM DTT, 1 ug DiDC competitor (so in the source), 50 nM DNA, 4 C, 30 min in the …"}, "HetR [4]": {"target": "T3, HetR (Nostoc PCC 7120, UniProt P27709 1-299)", "T3 construct": "HetR, master transcriptional regulator of heterocyst differentiation, Nostoc/Anabaena PCC 7120; purified protein used in ITC and EMSA; also called master transcriptional regulator HetR; source: purified (as previously described)", "T3 sequence (looked up)": "T1 sequence (P27709 1-299)", "experiment": "ITC; PatX6 (200 μM, syringe) titrated into HetR (22 μM, cell), 25°C, PBS pH 7.4, one-site binding model, MicroCal PEAQ-ITC", "conditions": "both partners purified"}},
  "data": [
    {"molecule": "AFSPSNSQNMISLK [non-tryptic PatX cleavage peptide flanking HRGTGR, detected by mass spectrometry]", "values": [
      {"measurement": "detection of non-tryptic cleavage peptide", "setting": "Alr1666 (PatP)", "result": "exclusively present in peptidase-producing strains"}
    ]},
    {"molecule": "ERGSGR [PatS6, signaling peptide PatS6 (ERGSGR), positive control in EMSA]", "values": [
      {"measurement": "effect on HetR-hetP promoter interaction", "setting": "HetR / hetP promoter", "result": "abolished this interaction"},
      {"measurement": "effect of exogenous peptide on differentiation", "setting": "[1]", "result": "suppress differentiation"},
      {"measurement": "binding to HetR and effect on its DNA-binding function", "setting": "HetR [2]", "result": "binds to HetR to inhibit its DNA-binding function"}
    ]},
    {"molecule": "GPDIIFWAHDR [non-tryptic PatX cleavage peptide flanking HRGTGR, detected by mass spectrometry]", "values": [
      {"measurement": "detection of non-tryptic cleavage peptide", "setting": "Alr1666 (PatP)", "result": "exclusively present in peptidase-producing strains"}
    ]},
    {"molecule": "PatS: 17-amino-acid product of patS, processed into PatS5 or PatS6 (MKAIMLVNFCDERGSGR; UniProt O52748 1-17, looked up)", "values": [
      {"measurement": "effect of overexpression on heterocyst differentiation", "setting": "[3]", "result": "inhibits heterocyst differentiation"}
    ]},
    {"molecule": "RGSGR [PatS5, signaling peptide PatS5 (RGSGR)]", "values": [
      {"measurement": "effect of exogenous peptide on differentiation", "setting": "[1]", "result": "suppress differentiation"},
      {"measurement": "binding to HetR and effect on its DNA-binding function", "setting": "HetR [2]", "result": "binds to HetR to inhibit its DNA-binding function"}
    ]},
    {"molecule": "TGAGTTATACGCTATATCAATGGGGATTTTGAGCATTTTCTACTAGGTAATGAGGGGTTAGACCCCTCGCCTACTGTGCATTTGAGACTTTAAACCTACTAAGAGAATTTACCACTAAAT (double strand) [hetP promoter PCR fragment]", "values": [
      {"measurement": "binding", "setting": "HetR (Nostoc PCC 7120)", "result": "binds"}
    ]},
    {"molecule": "B1", "values": [
      {"measurement": "effect of overexpression on heterocyst differentiation", "setting": "[3]", "result": "inhibits heterocyst differentiation"}
    ]},
    {"molecule": "B2", "values": [
      {"measurement": "Kd", "setting": "HetR [4]", "result": 88, "unit": "nM"}
    ]}
  ]
}
